Holding throughout (experiment): biochemical
In assay [1] the target is T1, PFCDPK1(P.falciparum) (Plasmodium falciparum, UniProt P62344).
T1 construct: gene CDPK1

Assay [2] concerns the target T2, FLT3(N841I) (Homo sapiens, UniProt P36888, N841I).
T2 sequence (P36888 1-993 N841I): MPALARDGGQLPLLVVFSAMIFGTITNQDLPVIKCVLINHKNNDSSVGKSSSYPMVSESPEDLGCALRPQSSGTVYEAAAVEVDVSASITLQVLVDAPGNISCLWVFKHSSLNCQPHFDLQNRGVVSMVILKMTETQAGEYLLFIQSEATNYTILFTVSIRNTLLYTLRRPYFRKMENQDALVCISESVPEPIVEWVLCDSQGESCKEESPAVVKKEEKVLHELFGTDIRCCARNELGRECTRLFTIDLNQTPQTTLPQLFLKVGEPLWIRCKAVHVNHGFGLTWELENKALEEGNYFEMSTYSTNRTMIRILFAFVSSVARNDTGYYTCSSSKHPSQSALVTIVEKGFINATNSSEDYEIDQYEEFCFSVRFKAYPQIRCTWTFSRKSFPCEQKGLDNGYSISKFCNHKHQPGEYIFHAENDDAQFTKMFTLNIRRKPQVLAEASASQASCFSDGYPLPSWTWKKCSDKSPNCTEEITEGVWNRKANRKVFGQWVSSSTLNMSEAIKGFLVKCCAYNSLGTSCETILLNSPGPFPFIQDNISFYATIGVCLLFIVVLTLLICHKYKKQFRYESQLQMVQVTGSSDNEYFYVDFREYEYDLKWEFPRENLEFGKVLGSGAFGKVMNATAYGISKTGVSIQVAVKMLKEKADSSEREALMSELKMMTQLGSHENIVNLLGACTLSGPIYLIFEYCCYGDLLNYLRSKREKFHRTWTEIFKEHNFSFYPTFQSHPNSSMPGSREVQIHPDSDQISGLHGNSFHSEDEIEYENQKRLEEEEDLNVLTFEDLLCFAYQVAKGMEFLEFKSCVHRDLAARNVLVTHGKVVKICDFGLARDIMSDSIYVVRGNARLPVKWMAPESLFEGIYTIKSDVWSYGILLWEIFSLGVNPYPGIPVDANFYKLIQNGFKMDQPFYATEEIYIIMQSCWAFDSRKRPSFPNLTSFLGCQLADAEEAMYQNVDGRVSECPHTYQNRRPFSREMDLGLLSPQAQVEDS
Set-up: KINOMEscan scanMAX competition binding, DNA-tagged kinases, qPCR read-out, percent control at 300 nM.

The target of assay [3] is T3, NEK2 (Homo sapiens, UniProt P51955).
T3 sequence (P51955 1-445): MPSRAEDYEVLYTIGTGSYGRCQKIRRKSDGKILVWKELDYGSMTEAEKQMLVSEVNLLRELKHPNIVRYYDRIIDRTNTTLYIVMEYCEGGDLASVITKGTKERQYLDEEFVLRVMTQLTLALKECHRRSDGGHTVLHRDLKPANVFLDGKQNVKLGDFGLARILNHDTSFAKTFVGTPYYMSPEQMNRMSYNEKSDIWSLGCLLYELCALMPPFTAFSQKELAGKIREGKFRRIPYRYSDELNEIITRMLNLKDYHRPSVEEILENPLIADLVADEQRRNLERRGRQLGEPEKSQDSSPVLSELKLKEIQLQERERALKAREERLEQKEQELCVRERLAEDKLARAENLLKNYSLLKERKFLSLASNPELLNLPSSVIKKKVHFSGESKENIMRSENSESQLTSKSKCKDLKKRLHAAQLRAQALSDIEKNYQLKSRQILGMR
Set-up: KINOMEscan scanMAX competition binding, DNA-tagged kinases, qPCR read-out, percent control at 300 nM.

For assay [4], the target named is KIT(D816V) (Homo sapiens, UniProt P10721, D816V). Set-up: KINOMEscan scanMAX competition binding, DNA-tagged kinases, qPCR read-out, percent control at 300 nM.
KIT(D816V), sequence (P10721 whole entry D816V): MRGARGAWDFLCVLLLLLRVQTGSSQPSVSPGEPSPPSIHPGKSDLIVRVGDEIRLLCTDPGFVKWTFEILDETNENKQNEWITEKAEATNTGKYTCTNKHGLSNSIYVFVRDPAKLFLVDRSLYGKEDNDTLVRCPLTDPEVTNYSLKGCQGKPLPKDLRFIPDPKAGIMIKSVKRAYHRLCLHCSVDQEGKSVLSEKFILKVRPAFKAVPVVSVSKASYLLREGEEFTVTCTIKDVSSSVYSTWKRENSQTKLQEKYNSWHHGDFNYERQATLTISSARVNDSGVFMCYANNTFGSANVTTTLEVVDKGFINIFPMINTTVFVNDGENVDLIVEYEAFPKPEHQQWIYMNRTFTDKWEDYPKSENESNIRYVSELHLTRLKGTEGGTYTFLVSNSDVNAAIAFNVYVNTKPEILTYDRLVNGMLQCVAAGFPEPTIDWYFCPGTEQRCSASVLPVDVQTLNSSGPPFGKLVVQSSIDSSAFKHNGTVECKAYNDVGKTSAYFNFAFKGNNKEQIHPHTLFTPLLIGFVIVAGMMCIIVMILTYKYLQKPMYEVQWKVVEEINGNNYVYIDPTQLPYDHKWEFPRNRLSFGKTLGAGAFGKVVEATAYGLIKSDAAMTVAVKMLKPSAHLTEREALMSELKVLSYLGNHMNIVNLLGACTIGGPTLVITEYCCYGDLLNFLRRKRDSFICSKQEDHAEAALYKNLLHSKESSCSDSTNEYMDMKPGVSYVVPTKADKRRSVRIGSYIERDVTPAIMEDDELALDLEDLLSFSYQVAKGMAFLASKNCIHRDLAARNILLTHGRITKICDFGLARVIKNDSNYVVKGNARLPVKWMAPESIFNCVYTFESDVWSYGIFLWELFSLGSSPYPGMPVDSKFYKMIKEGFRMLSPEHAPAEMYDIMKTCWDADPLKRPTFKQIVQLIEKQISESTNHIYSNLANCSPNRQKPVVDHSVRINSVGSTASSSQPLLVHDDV
For assay [5], the target named is T4, MAP4K3 (Homo sapiens, UniProt Q8IVH8).
T4 sequence (Q8IVH8 1-894): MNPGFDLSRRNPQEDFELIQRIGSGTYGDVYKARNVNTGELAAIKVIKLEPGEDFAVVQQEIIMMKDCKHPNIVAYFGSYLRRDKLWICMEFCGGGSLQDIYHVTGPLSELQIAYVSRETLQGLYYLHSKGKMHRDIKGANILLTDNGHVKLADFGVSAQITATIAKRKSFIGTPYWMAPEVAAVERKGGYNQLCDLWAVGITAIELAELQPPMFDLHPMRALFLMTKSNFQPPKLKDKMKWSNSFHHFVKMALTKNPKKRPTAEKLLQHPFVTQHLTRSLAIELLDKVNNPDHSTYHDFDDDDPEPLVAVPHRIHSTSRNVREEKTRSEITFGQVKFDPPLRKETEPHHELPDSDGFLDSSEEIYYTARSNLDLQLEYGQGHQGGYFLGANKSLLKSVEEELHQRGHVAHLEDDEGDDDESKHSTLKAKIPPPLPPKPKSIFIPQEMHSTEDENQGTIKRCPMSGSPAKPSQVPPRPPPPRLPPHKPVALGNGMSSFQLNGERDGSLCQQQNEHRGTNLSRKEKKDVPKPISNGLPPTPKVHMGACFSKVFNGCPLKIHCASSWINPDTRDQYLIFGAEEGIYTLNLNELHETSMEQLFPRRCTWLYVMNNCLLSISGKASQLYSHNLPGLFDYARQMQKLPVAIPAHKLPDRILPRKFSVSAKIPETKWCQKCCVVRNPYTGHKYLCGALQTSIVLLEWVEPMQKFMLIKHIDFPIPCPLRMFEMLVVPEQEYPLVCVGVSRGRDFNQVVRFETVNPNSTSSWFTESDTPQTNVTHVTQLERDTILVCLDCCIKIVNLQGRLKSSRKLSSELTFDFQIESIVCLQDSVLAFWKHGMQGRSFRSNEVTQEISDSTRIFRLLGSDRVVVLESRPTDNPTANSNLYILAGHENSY
The arrangement: KINOMEscan scanMAX competition binding, DNA-tagged kinases, qPCR read-out, percent control at 300 nM.

Assay [6] concerns the target T5, MST3 (Homo sapiens, UniProt Q9Y6E0).
T5 construct: gene STK24
The arrangement: KINOMEscan scanMAX competition binding, DNA-tagged kinases, qPCR read-out, percent control at 300 nM.

Where [7] appears, read: read-out: Percent control / Acalabrutinib.
Setting [8] is: read-out: Percent control / Ibrutinib.
[9] abbreviates: read-out: Percent control / Tirabrutinib.
[10] abbreviates: read-out: Percent control / Zanubrutinib.

Where two headings read alike, the source gives them in different places.

T1 sequence (P62344 whole entry): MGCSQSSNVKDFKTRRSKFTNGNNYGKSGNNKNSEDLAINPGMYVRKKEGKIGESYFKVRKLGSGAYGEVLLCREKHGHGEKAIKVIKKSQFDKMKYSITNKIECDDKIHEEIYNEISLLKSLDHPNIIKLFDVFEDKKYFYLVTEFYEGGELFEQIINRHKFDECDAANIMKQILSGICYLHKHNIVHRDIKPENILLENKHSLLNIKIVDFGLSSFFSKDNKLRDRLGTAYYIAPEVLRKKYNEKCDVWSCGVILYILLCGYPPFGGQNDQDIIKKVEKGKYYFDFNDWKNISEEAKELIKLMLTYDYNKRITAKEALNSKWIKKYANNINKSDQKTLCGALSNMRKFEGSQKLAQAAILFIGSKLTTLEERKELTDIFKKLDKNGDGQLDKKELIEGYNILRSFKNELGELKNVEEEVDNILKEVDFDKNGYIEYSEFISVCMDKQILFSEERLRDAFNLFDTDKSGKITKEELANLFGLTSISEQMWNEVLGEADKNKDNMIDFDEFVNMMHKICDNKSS
T5 sequence (Q9Y6E0 whole entry): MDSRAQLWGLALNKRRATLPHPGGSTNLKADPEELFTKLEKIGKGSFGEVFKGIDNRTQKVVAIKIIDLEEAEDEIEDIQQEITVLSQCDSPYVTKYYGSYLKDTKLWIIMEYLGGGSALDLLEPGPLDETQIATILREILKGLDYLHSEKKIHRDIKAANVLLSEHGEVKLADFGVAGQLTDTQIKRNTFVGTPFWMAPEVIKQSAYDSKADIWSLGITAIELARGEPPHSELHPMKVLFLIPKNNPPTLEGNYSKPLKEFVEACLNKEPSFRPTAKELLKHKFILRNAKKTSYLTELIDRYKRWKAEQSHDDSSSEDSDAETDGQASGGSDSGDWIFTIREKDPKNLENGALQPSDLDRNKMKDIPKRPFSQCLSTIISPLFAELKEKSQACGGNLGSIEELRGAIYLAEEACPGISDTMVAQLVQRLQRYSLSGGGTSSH

On to `CC#CC(=O)N1CCC[C@H]1c1nc(-c2ccc(C(=O)Nc3ccccn3)cc2)c2c(N)nccn12` [Acalabrutinib], for which the remaining activity at 0.3 µM in assay [1] (setting [7]) was 23%. In addition, the remaining binding at 0.3 µM in assay [2] (setting [7]) was found to be 85%; in assay [3] (setting [7]) it was 95%; in assay [4] (setting [7]), 92%; in assay [5] (setting [7]) it was 94%; in assay [6] (setting [7]), 94%.

On to `C=CC(=O)N1CCC[C@@H](n2nc(-c3ccc(Oc4ccccc4)cc3)c3c(N)ncnc32)C1` [Ibrutinib], for which the remaining activity at 0.3 µM in assay [1] (setting [8]) turned out to be 0.9%. Further, the remaining binding at 0.3 µM amounted to 39% in assay [2] (setting [8]), 84% in assay [3] (setting [8]), 89% in assay [5] (setting [8]) and 90% in assay [6] (setting [8]).

For `CC#CC(=O)N1CC[C@@H](n2c(=O)n(-c3ccc(Oc4ccccc4)cc3)c3c(N)ncnc32)C1` [Tirabrutinib], the remaining binding at 0.3 µM in assay [3] (setting [9]) and in assay [4] (setting [9]) was 93% each time.

In the case of `C=CC(=O)N1CCC([C@@H]2CCNc3c(C(N)=O)c(-c4ccc(Oc5ccccc5)cc4)nn32)CC1` [Zanubrutinib], the remaining activity at 0.3 µM in assay [1] (setting [10]) was found to be 7.4%. The remaining binding at 0.3 µM was 100% in assay [2] (setting [10]); 90% in assay [3] (setting [10]); 98% in assay [4] (setting [10]); 91% in assay [5] (setting [10]); 91% in assay [6] (setting [10]).
